Drawing on article PMC9856672, “SGC-CAMKK2-1: A Chemical Probe for CAMKK2” (Cells, 2023), this text covers remaining binding for 2 compounds.

One assay concerns the target T1, CLK1 (Homo sapiens, UniProt P49759).
T1 construct: purchased Eurofins DiscoverX KINOMEscan
The experiment in a line: KINOMEscan 1 μM, CLK1. The note with it: 1000 nM; Entrez CLK1; read-out: Percent Control. The format is binding. An excerpt: (§1) Supplement cells-12-00287-s001.zip/File S2. KinomeScan data for the CAMKK2 probe and negative control.xlsx, sheet "SGC-CAMKK2-1" | column: Percent Control

Assay [1] has as its target T2, RSK4(Kin.Dom.2-C-terminal) (Homo sapiens, UniProt Q9UK32).
T2 construct: RSK4(Kin.Dom.2-C-terminal); purchased Eurofins DiscoverX KINOMEscan
Briefly: DiscoverX KINOMEscan binding assay at 1 μM, RSK4(Kin.Dom.2-C-terminal). The note with it: RSK4(Kin.Dom.2-C-terminal) (RPS6KA6); Compound Concentration 1000 nM; read-out: Percent Control.
Text: as §1

Another assay has as its target T3, RIPK1 (Homo sapiens, UniProt Q13546).
T3 construct: purchased Eurofins DiscoverX KINOMEscan
Briefly: KINOMEscan 1 μM, RIPK1. The format is binding. The note with it: 1000 nM; Entrez RIPK1; read-out: Percent Control.
Text: as §1

The next assay addresses T4, AXL (Homo sapiens, UniProt P30530).
T4 construct: purchased Eurofins DiscoverX KINOMEscan
The experiment in a line: KINOMEscan 1 μM, AXL. The format is binding. The note with it: 1000 nM; Entrez AXL; read-out: Percent Control.
Text: as §1

The target of the next assay is T5, NEK10 (Homo sapiens, UniProt Q6ZWH5).
T5 construct: purchased Eurofins DiscoverX KINOMEscan
Briefly: KINOMEscan 1 μM, NEK10. The format is binding. The note with it: 1000 nM; Entrez NEK10; read-out: Percent Control.
Text: as §1

In the next assay the target is T6, TLK1 (Homo sapiens, UniProt Q9UKI8).
T6 construct: purchased Eurofins DiscoverX KINOMEscan
Briefly: KINOMEscan 1 μM, TLK1. The format is binding. The note with it: 1000 nM; Entrez TLK1; read-out: Percent Control.
Text: as §1

In assay [2] the target is T7, RSK1(Kin.Dom.1-N-terminal) (Homo sapiens, UniProt Q15418).
T7 construct: RSK1(Kin.Dom.1-N-terminal); purchased Eurofins DiscoverX KINOMEscan
T7 sequence (Q15418 1-391 limits assumed): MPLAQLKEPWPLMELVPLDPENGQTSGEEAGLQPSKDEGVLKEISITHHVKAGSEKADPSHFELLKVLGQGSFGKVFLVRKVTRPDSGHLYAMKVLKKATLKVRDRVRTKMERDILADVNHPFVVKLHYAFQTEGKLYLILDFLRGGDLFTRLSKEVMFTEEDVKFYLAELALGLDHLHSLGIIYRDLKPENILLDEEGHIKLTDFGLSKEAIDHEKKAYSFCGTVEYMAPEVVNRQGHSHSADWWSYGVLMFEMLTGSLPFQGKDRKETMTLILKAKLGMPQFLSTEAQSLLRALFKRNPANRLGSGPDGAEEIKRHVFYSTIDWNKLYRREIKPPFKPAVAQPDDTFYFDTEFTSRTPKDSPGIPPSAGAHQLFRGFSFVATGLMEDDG
The experiment in a line: DiscoverX KINOMEscan binding assay at 1 μM, RSK1(Kin.Dom.1-N-terminal). The note with it: RSK1(Kin.Dom.1-N-terminal) (RPS6KA1); Compound Concentration 1000 nM; read-out: Percent Control.
Text: as §1

Another assay addresses T8, NEK6 (Homo sapiens, UniProt Q9HC98).
T8 construct: purchased Eurofins DiscoverX KINOMEscan
The experiment in a line: KINOMEscan 1 μM, NEK6. The format is binding. The note with it: 1000 nM; Entrez NEK6; read-out: Percent Control.
Text: as §1

The target of a further assay is T9, PIK3CA(Q546K) (Homo sapiens, UniProt P42336, Q546K).
T9 construct: purchased Eurofins DiscoverX KINOMEscan
Briefly: DiscoverX KINOMEscan binding assay at 1 μM, PIK3CA(Q546K). The note with it: Compound Concentration 1000 nM, read-out: Percent Control.
Text: as §1

A further assay concerns the target T10, EGFR(S752-I759del) (Homo sapiens, UniProt P00533, DEL752-759).
T10 construct: purchased Eurofins DiscoverX KINOMEscan
The experiment in a line: KINOMEscan 1 μM, EGFR(S752-I759del). The format is binding. The note with it: 1000 nM; Entrez EGFR; read-out: Percent Control.
Text: as §1

A further assay deals with T11, ERK2 (Homo sapiens, UniProt P28482).
T11 construct: purchased Eurofins DiscoverX KINOMEscan
T11 sequence (P28482 whole entry): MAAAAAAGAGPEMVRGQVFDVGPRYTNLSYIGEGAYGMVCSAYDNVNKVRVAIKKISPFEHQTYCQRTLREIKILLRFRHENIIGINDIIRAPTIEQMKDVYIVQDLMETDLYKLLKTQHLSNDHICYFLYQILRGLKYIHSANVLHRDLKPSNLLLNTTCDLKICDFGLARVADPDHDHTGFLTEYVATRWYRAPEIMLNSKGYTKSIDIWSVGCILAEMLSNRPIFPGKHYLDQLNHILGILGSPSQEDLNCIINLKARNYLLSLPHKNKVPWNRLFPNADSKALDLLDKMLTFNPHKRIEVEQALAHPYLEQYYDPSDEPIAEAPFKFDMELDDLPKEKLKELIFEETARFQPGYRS
Briefly: KINOMEscan 1 μM, ERK2. The format is binding. The note with it: 1000 nM; Entrez MAPK1; read-out: Percent Control.
Text: as §1

In the next assay the target is T12, KIT(V559D) (Homo sapiens, UniProt P10721, V559D).
T12 construct: purchased Eurofins DiscoverX KINOMEscan
The experiment in a line: KINOMEscan 1 μM, KIT(V559D). The format is binding. The note with it: 1000 nM; Entrez KIT; read-out: Percent Control.
Text: as §1

The target in the next assay is T13, p38-delta (Homo sapiens, UniProt O15264).
T13 construct: purchased Eurofins DiscoverX KINOMEscan
The experiment in a line: KINOMEscan 1 μM, p38-delta. The format is binding. The note with it: 1000 nM; Entrez MAPK13; read-out: Percent Control.
Text: as §1

For the next assay, the target named is T14, LIMK2 (Homo sapiens, UniProt P53671).
T14 construct: purchased Eurofins DiscoverX KINOMEscan
The experiment in a line: KINOMEscan 1 μM, LIMK2. The format is binding. The note with it: 1000 nM; Entrez LIMK2; read-out: Percent Control.
Text: as §1

A further assay deals with T15, EGFR(G719C) (Homo sapiens, UniProt P00533, G719C).
T15 construct: purchased Eurofins DiscoverX KINOMEscan
The experiment in a line: KINOMEscan 1 μM, EGFR(G719C). The format is binding. The note with it: 1000 nM; Entrez EGFR; read-out: Percent Control.
Text: as §1

The next assay has as its target T16, PIK3CD (Homo sapiens, UniProt O00329).
T16 construct: purchased Eurofins DiscoverX KINOMEscan
The experiment in a line: DiscoverX KINOMEscan binding assay at 1 μM, PIK3CD. The note with it: Compound Concentration 1000 nM, read-out: Percent Control.
Text: as §1

The target in the next assay is T17, MAP3K15 (Homo sapiens, UniProt Q6ZN16).
T17 construct: purchased Eurofins DiscoverX KINOMEscan
The experiment in a line: KINOMEscan 1 μM, MAP3K15. The format is binding. The note with it: 1000 nM; Entrez MAP3K15; read-out: Percent Control.
Text: as §1

A further assay concerns the target T18, PIK3CA(H1047Y) (Homo sapiens, UniProt P42336, H1047Y).
T18 construct: purchased Eurofins DiscoverX KINOMEscan
Briefly: KINOMEscan at 1 μM, PIK3CA(H1047Y). The format is binding. The note with it: 1000 nM, read-out: Percent Control. From the text: (§2) Supplement cells-12-00287-s001.zip/File S2. KinomeScan data for the CAMKK2 probe and negative control.xlsx, sheet "SGC-CAMKK2-1N" | column: Percent Control

A further assay has as its target T19, S6K1 (Homo sapiens, UniProt P23443).
T19 construct: purchased Eurofins DiscoverX KINOMEscan
The experiment in a line: KINOMEscan at 1 μM, S6K1. The note with it: 1000 nM, read-out: Percent Control. The format is binding.
Text: as §2

In the next assay the target is T20, MAP3K4 (Homo sapiens, UniProt Q9Y6R4).
T20 construct: purchased Eurofins DiscoverX KINOMEscan
Briefly: KINOMEscan at 1 μM, MAP3K4. The format is binding. The note with it: 1000 nM, read-out: Percent Control.
Text: as §2

For another assay, the target named is T21, CAMK1G (Homo sapiens, UniProt Q96NX5).
T21 construct: purchased Eurofins DiscoverX KINOMEscan
The experiment in a line: KINOMEscan at 1 μM, CAMK1G. The format is binding. The note with it: 1000 nM, read-out: Percent Control.
Text: as §2

A further assay deals with T22, WNK4 (Homo sapiens, UniProt Q96J92).
T22 construct: purchased Eurofins DiscoverX KINOMEscan
The experiment in a line: KINOMEscan at 1 μM, WNK4. The format is binding. The note with it: 1000 nM, read-out: Percent Control.
Text: as §2

A further assay concerns the target T23, RET(V804L) (Homo sapiens, UniProt P07949, V804L).
T23 construct: purchased Eurofins DiscoverX KINOMEscan
Briefly: KINOMEscan at 1 μM, RET(V804L). The note with it: 1000 nM, read-out: Percent Control. The format is binding.
Text: as §2

Another assay addresses T24, DDR1 (Homo sapiens, UniProt Q08345).
T24 construct: purchased Eurofins DiscoverX KINOMEscan
The experiment in a line: KINOMEscan at 1 μM, DDR1. The note with it: 1000 nM, read-out: Percent Control. The format is binding.
Text: as §2

Another assay addresses T25, TIE2 (Homo sapiens, UniProt Q02763).
T25 construct: purchased Eurofins DiscoverX KINOMEscan
The experiment in a line: KINOMEscan at 1 μM, TIE2. The format is binding. The note with it: 1000 nM, read-out: Percent Control.
Text: as §2

The next assay deals with T26, TNK2 (Homo sapiens, UniProt Q07912).
T26 construct: purchased Eurofins DiscoverX KINOMEscan
The experiment in a line: KINOMEscan at 1 μM, TNK2. The note with it: 1000 nM, read-out: Percent Control. The format is binding.
Text: as §2

The next assay deals with T27, NDR1 (Homo sapiens, UniProt Q15208).
T27 construct: purchased Eurofins DiscoverX KINOMEscan
The experiment in a line: KINOMEscan at 1 μM, NDR1. The format is binding. The note with it: 1000 nM, read-out: Percent Control.
Text: as §2

Assay [3] has as its target T28, ABL1(T315I)-nonphosphorylated (Homo sapiens, UniProt P00519, T315I).
T28 construct: purchased Eurofins DiscoverX KINOMEscan
The experiment in a line: KINOMEscan at 1 μM, ABL1(T315I)-nonphosphorylated. The format is binding. The note with it: 1000 nM, read-out: Percent Control.
Text: as §2

The next assay addresses T29, FGFR3 (Homo sapiens, UniProt P22607).
T29 construct: purchased Eurofins DiscoverX KINOMEscan
The experiment in a line: KINOMEscan at 1 μM, FGFR3. The format is binding. The note with it: 1000 nM, read-out: Percent Control.
Text: as §2

Another assay has as its target T30, TAOK3 (Homo sapiens, UniProt Q9H2K8).
T30 construct: purchased Eurofins DiscoverX KINOMEscan
Briefly: KINOMEscan at 1 μM, TAOK3. The format is binding. The note with it: 1000 nM, read-out: Percent Control.
Text: as §2

The target of the next assay is T31, LRRK2 (Homo sapiens, UniProt Q5S007).
T31 construct: purchased Eurofins DiscoverX KINOMEscan
Briefly: KINOMEscan at 1 μM, LRRK2. The format is binding. The note with it: 1000 nM, read-out: Percent Control.
Text: as §2

A further assay has as its target T32, FLT3(N841I) (Homo sapiens, UniProt P36888, N841I).
T32 construct: purchased Eurofins DiscoverX KINOMEscan
The experiment in a line: KINOMEscan binding assay at 1 μM, FLT3(N841I). The note with it: Compound Concentration 1000 nM; read-out: Percent Control.
Text: as §2

T16 sequence (O00329 whole entry): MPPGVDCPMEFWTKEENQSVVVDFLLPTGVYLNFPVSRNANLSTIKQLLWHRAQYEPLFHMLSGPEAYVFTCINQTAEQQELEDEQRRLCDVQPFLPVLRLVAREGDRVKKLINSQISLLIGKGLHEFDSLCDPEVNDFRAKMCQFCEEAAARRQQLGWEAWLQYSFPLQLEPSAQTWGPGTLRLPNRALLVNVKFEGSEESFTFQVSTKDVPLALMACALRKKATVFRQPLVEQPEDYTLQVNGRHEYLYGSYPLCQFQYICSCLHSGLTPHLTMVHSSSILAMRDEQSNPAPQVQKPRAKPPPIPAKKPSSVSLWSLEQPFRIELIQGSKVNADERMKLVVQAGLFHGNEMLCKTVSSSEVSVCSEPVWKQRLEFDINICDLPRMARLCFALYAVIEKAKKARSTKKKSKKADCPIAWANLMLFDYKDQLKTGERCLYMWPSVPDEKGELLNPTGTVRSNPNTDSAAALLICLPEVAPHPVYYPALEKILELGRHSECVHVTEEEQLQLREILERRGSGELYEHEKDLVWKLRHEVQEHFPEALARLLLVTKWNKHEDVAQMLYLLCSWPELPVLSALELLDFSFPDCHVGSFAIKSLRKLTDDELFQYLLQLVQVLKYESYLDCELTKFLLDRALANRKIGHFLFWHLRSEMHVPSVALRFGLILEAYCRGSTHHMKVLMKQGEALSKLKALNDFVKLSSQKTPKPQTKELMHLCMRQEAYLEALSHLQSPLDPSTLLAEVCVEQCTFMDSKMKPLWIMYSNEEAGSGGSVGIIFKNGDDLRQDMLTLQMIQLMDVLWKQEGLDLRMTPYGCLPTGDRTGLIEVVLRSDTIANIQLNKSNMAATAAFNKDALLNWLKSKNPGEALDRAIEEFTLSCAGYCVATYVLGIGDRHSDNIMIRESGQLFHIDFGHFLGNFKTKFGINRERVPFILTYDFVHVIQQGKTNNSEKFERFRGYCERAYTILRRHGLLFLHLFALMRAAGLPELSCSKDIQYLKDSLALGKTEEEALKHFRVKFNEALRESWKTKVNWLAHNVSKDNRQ
T19 sequence (P23443 whole entry): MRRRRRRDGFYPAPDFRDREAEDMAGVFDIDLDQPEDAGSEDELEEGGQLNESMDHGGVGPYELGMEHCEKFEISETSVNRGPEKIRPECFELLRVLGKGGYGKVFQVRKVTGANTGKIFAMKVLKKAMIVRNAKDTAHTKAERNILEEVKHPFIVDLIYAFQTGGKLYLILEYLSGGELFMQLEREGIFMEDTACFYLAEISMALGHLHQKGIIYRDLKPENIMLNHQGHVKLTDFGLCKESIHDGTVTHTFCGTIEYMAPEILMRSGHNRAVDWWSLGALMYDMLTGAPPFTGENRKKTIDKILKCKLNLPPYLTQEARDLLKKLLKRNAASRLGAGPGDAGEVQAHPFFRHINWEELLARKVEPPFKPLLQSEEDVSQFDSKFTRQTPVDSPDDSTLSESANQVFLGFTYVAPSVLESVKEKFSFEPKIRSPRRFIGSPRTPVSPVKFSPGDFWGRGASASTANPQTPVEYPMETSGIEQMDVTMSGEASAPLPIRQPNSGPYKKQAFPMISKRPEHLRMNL
T1 sequence (P49759 whole entry): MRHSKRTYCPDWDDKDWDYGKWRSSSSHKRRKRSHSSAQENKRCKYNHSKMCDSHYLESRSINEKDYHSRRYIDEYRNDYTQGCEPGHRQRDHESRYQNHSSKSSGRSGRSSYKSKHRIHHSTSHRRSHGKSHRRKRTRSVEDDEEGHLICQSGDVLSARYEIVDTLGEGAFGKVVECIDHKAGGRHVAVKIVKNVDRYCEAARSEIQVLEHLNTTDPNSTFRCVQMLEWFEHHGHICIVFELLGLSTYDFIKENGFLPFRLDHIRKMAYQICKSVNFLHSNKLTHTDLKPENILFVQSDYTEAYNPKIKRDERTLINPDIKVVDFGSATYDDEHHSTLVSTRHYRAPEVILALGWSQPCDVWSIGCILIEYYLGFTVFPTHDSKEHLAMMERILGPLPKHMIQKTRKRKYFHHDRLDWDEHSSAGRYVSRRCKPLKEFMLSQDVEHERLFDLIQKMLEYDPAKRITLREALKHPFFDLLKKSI
T24 sequence (Q08345 19-913): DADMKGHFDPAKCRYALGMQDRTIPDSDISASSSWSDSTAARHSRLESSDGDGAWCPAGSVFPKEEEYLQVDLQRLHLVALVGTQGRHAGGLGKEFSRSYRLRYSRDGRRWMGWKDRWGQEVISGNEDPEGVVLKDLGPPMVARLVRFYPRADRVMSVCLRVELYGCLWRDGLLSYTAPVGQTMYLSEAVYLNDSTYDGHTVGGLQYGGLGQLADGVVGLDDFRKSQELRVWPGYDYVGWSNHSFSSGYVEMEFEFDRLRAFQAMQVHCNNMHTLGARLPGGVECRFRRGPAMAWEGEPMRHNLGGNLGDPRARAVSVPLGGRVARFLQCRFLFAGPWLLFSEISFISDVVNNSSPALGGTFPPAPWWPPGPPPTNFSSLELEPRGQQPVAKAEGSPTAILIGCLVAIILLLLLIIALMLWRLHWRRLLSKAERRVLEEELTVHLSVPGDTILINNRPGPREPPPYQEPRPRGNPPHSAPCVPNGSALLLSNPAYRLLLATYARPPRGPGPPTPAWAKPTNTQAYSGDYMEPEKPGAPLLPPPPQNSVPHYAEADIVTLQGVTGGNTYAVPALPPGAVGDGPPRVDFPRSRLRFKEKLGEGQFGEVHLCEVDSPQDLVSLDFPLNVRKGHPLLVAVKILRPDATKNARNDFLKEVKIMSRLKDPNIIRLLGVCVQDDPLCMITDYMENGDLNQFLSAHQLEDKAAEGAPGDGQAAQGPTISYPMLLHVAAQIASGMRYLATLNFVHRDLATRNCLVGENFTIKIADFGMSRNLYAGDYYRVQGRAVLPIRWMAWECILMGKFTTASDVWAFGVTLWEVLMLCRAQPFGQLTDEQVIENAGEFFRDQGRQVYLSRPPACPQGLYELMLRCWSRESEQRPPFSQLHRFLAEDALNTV
T3 sequence (Q13546 whole entry): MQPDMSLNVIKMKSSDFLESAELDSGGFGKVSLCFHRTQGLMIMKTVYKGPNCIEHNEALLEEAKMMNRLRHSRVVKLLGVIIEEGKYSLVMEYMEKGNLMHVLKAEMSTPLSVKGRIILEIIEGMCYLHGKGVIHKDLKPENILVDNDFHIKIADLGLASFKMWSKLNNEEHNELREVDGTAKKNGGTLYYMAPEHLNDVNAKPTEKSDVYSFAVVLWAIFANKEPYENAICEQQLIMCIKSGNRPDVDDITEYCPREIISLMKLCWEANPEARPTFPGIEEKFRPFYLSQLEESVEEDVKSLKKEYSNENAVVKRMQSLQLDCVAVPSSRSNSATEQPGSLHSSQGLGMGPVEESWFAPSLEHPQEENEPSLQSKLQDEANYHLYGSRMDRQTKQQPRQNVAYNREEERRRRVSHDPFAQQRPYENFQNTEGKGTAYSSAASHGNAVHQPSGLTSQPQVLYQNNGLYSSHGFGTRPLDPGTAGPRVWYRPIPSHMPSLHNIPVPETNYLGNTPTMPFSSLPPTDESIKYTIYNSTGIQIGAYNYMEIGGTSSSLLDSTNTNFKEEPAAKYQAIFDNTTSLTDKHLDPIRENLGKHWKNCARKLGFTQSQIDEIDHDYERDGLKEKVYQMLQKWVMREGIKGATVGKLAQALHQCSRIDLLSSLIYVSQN
T2 sequence (Q9UK32 401-745 limits assumed): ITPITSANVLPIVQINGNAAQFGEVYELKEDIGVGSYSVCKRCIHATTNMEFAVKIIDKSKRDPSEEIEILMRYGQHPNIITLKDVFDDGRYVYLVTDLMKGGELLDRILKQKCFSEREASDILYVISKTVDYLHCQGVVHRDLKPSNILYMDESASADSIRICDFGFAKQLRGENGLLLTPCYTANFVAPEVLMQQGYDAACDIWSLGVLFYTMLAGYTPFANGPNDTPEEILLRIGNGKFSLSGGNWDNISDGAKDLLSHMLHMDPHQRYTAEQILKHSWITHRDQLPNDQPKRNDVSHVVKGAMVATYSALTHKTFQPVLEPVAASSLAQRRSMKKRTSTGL

As for `Cc1cccc(-c2cnc3occ(-c4ccc(C(=O)O)c(C5CCCC5)c4)c3c2)c1` [SGC-CAMKK2-1 (YL-36)], the remaining binding at 1 µM at CLK1 stood at 100%; in [1], 100%; at RIPK1, 93%; on AXL, 100%; at NEK10, 88%; at TLK1, 92%. For the same compound, the remaining binding at 1 µM in assay [2] was determined as 100%; on NEK6, 100%; on PIK3CA(Q546K), 100%; on EGFR(S752-I759del) it was 87%; at ERK2 it was 81%; on KIT(V559D) it was 100%. The remaining binding at 1 µM was determined as 69% at p38-delta; 86% on LIMK2; 55% on EGFR(G719C); 100% on PIK3CD; 84% on MAP3K15.
As for `O=C(O)c1ccc(-c2coc3ncc(-c4ccccc4)cc23)cc1Cl` [SGC-CAMKK2-1N (UNC-YL-83)], the remaining binding at 1 µM turned out to be 59% at PIK3CA(H1047Y); 76% at S6K1; 68% at MAP3K4; 86% on CAMK1G; 93% at WNK4; 90% at RET(V804L). Moreover, the remaining binding at 1 µM at DDR1 worked out at 93%; at TIE2 it was 79%; on TNK2, 94%; on NDR1, 87%; in [3], 45%; on FGFR3, 76%. Further, the remaining binding at 1 µM at TAOK3 was 79%; at LRRK2, 47%; at FLT3(N841I) it was 100%.
